Laboratory results from the NIST ThermoML archive (doi:10.1016/j.fluid.2018.07.018).
Numbers after ± are expanded uncertainties.

Conditions: Crystal; DTA

Molecule `CC(C)OC(=O)C(C)(C)Oc1ccc(C(=O)c2ccc(Cl)cc2)cc1` [fenofibrate] has a Normal melting temperature of 82.00 ± 1.1 °C.
